Experimental data taken from patent US20240368157A1, “FORMS AND COMPOSITIONS OF A JAK2 INHIBITOR” (Ajax Therapeutics, Inc., priority 2023, published 2024).
Values after ≈ are worked out from the molar mass of the structure shown.

Experiments:
Kinetic Solubility Assay = assay type: physicochemical; conditions: aqueous buffer, kinetic from dmso stock, PBS, RT, pH of the reported value not stated (method: pH 4.0 and pH 7.4)
Description: Stock solutions of test compounds are prepared in DMSO at the concentration of 10 mM, and a stock solution of control compound is prepared in DMSO at the concentration of 30 mM. Diclofenac is used as positive control in the assay. 30 μL stock solution of each compound is placed into their a 96-well rack, followed by adding 970 μL of PBS at pH 4.0 and pH 7.4 into each vial of the cap-less solubility sample plate. This study is performed in duplicate. One stir stick is added to each vial and then vials are sealed using a molded PTDE/SIL 96-Well Plate Cover. The solubility sample plate is transferred to the Thermomixer comfort plate shaker and incubated at RT for 2 hours with shaking at 1100 rpm. After 2 hours incubation, stir sticks are removed using a big magnet and all samples from the solubility sample plate are transferred into the filter plate. All the samples are filtered by vacuum manifold. The filtered samples are diluted with methanol. Samples are analyzed by LC-MS/MS and quantified against a standard of known concentration in DMSO using LC coupled with Mass spectral peak identification and quantitation. The solubility values of the test compounds are calculated as follows, wherein INJ VOL is injection volume, DF is dilution factor, and STD is standard: […]

[1] = target: T1, JAK2 (JH1domain-catalytic, Y1007F, Y1008F) kinase (Homo sapiens, UniProt O60674, Y1007F/Y1008F); test: JAK2 Binding Assay
T1 construct: JAK2 (JH1domain-catalytic, Y1007F, Y1008F) kinase was expressed as N-terminal fusion; made in house; host or cells: transiently transfected HEK293 cells
T1 sequence (O60674 849-1124 Y1007F/Y1008F limits assumed): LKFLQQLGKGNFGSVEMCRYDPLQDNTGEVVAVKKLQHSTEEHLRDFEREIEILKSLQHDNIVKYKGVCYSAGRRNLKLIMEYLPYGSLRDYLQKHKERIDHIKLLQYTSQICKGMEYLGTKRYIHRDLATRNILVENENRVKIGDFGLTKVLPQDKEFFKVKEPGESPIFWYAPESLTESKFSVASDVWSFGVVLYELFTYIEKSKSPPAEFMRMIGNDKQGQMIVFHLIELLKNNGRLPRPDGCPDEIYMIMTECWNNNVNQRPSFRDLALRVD
Description: JAK2 (JH1domain-catalytic, Y1007F, Y1008F) kinase was expressed as N-terminal fusion to the DNA binding domain of NFkB in transiently transfected HEK293 cells and subsequently tagged with DNA for qPCR detection. Streptavidin-coated magnetic beads were treated with biotinylated small molecule ligands for 30 minutes at room temperature to generate affinity resins for kinase assays. The liganded beads were blocked with excess biotin and washed with blocking buffer (SeaBlock (Pierce), 1% BSA, 0.05% Tween 20, 1 mmol/L DTT) to remove unbound ligand and to reduce nonspecific phage binding. Binding reactions were assembled by combining kinases, liganded affinity beads, and test compounds in 1× binding buffer (1×PBS, 0.05% Tween 20, 0.1% BSA, 1 mmol/L DTT). Test compound was prepared as 111× stocks in 100% DMSO and directly diluted into the assay wells. All reactions were performed in polypropylene 384-well plates in a final volume of 0.02 mL. The assay plates were incubated at room temperature with shaking for 1 hour and the affinity beads were washed with wash buffer (1×PBS, 0.05% Tween 20). The beads were then re-suspended in elution buffer (1×PBS, 0.05% Tween 20, 0.5 μmol/L non-biotinylated affinity ligand) and incubated at room temperature with shaking for 30 minutes. The kinase concentration in the eluate was measured by qPCR.

[2] = Interconversion slurry experiments; conditions: slurry EtOH:H2O (90:10), 65° C.; material with small peak at ˜8.0 °2θ
Description: Mixtures of Form H and Form I with Form B were utilized in these interconversion slurry experiments. […] The interconversion slurries were performed at ambient and elevated (65° C.) temperatures in various solvents and solvent mixtures.

solubility at 2 h (Kinetic Solubility Assay) [µM]	Kd [1] [nM]	degradation by HPLC analysis [2]	SMILES
100 to 200 (≈ 56.8 to 114 µg/mL)	–	–	CCN1CCN(Cc2ccc(Nc3nc4ccc(Oc5ccnc(NC(C)=O)c5)cc4n3C)cc2C(F)(F)F)CC1 [Compound R-1, reference compound]
9 to 100 (≈ 4.75 to 52.7 µg/mL)	< 10	small amount of degradation	CN(C)C(=O)Nc1cc(Oc2cnc3nc(Nc4cc(C(F)(F)F)cn(C)c4=O)n(C)c3c2C#N)ccn1 [Compound 1, 3-(4-((7-cyano-1-methyl-2-((1-methyl-2-oxo-5-(trifluoromethyl)-1,2-dihydropyridin-3-yl)amino)-1H-imidazo[4,5-b]pyridin-6-yl)oxy)pyridin-2-yl)-1,1-dimethylurea]
